Data on 45 compounds can be found in patent US10421718B2, “EBNA1 inhibitors and their method of use” (priority 2013, dated 2019).

Each structure is given as a SMILES string. Structures can show the parent of a compound that is named as a salt. A value given as a limit tells only on which side of the number the result lay.

The target in this test is T1, His-EBNA1 (DNA binding domain of EBNA1, amino acids 459-607) (Epstein-Barr virus, UniProt P03211).
T1 construct: made in house; host or cells: E. coli
T1 sequence (P03211 459-607): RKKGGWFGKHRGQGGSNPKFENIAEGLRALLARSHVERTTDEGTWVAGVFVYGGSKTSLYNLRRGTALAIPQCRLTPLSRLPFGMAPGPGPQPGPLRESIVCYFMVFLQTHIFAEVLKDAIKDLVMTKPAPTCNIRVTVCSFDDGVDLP
Put plainly: Inhibition of 5′-biotin-oPL4624 binding to His-EBNA1 using Alpha Screen technology. The note with it: Alpha Screen Activity (IC50, inhibition of 5′-biotin-oPL4624 binding to His-EBNA1), 15 nM His-EBNA1, 0.2 nM bt-oPL4624, 2 hr room temperature. In a few lines:
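AlphaScreen signal (680 nm ex, 570 nm em) after a 2-h room-temperature incubation, normalized to no-EBNA1 (100% inhibition) and EBNA1 (0%) values and fit to a one-site curve. Final conditions: 15 nM His-EBNA1 (aa 459-607), 0.2 nM bt-oPL4624, Tris pH 7.2 buffer with 160 mM NaCl, compound 3.2 nM to 100 μM.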
(In Alpha technology, singlet oxygen from a donor bead excites a nearby acceptor bead.)
In the case of `COc1cncc(-c2c(C#Cc3cccc(O)c3)cccc2C(=O)O)c1` [Entry 241, 3-((3-hydroxyphenyl)ethynyl)-2-(5-methoxypyridin-3-yl)benzoic acid], the IC50 lay in the range of 10 to 100 µM. For `O=C(O)c1cccc(C#Cc2ccncc2)c1-c1cc(O)cc(F)c1` [Entry 272, 2-(3-fluoro-5-hydroxyphenyl)-3-[2-(pyridin-4-yl)ethynyl]benzoic acid; trifluoroacetate salt], the IC50 was 10 to 100 µM. In turn, `O=C(O)c1cccc(C#Cc2cccc(O)c2)c1-c1ccccc1Oc1ccccc1` [Entry 275, 3-[2-(3-hydroxyphenyl)ethynyl]-2-(2-phenoxyphenyl)benzoic acid] displayed an IC50 of 10 to 100 µM.

With `O=C(Nc1cccc(C#Cc2cccc(C(=O)O)c2-c2ccc3cc[nH]c3c2)c1)c1cccnc1` [Entry 231, 2-(1H-indol-6-yl)-3-((3-(nicotinamido)phenyl)ethynyl)benzoic acid], the IC50 fell in the range of 1 to 10 µM. As for `C#Cc1cccc(C(=O)O)c1-n1cccc1` [Entry 47, 3-ethynyl-2-(1H-pyrrol-1-yl)benzoic acid], the figure is 10 to 100 µM; as for `Cc1ccc(C)n1-c1c(C#Cc2cccc(C(=O)O)c2)cccc1C(=O)O` [Entry 194, 3-(3-carboxy-phenylethynyl)-2-(2,5-dimethyl-pyrrol-1-yl)-benzoic acid], below 1 µM.

`CC(C)C(O)C#Cc1cccc(C(=O)O)c1-n1cccc1` (stereo not drawn) [Entry 32, 3-(3-hydroxy-4-methylpent-1-yn-1-yl)-2-(1H-pyrrol-1-yl)benzoic acid] had an IC50 of 1 to 10 µM. For `O=C(O)c1cccc(C#CCCO)c1-c1ccc2cc[nH]c2c1` [Entry 245, 3-(4-hydroxybut-1-ynyl)-2-(1H-indol-6-yl)benzoic acid] the value was below 1 µM; for `O=C(O)c1cc(Cl)cc(C#Cc2ccc(F)cc2)c1-n1cccc1` [Entry 58, 5-chloro-3-[2-(4-fluorophenyl)ethynyl]-2-(1H-pyrrol-1-yl)benzoic acid], 10 to 100 µM. Consider `O=C(O)c1cccc(C#CC2CC2)c1-n1cccc1` [Entry 62, 3-(2-cyclopropylethynyl)-2-(1H-pyrrol-1-yl)benzoic acid], for which the IC50 is below 1 µM. As for `CC(C)(O)C#Cc1cccc(C(=O)O)c1-n1cccc1` [Entry 63, 3-(3-hydroxy-3-methylbut-1-yn-1-yl)-2-(1H-pyrrol-1-yl)benzoic acid], the figure is below 1 µM. As for `O=C(O)c1cccc(C#Cc2cccc3nccn23)c1-n1cccc1` [Entry 13, 3-(2-{imidazo[1,2-a]pyridin-5-yl}ethynyl)-2-(1H-pyrrol-1-yl)benzoic acid], the figure is 10 to 100 µM; as for `O=C(O)c1cccc(C#Cc2cccc(CO)c2)c1-n1cccc1` [Entry 39, 3-{2-[3-(hydroxymethyl)phenyl]ethynyl}-2-(1H-pyrrol-1-yl)benzoic acid], below 1 µM. As for `O=C(O)c1cccc(C#Cc2ccc(N3CCOCC3)cc2)c1-c1ccc2cc[nH]c2c1` [Entry 226, 2-(1H-indol-6-yl)-3-((4-morpholinophenyl)ethynyl)benzoic acid], the figure is 10 to 100 µM; as for `COC(=O)c1cccc(C#Cc2cccc(C(=O)O)c2)c1` [Entry 183, 3-(3-carboxy-phenylethynyl)-benzoic acid methyl ester], 100 to 1000 µM; as for `C(#Cc1ccc2[nH]ccc2c1)c1cccc(-c2nnn[nH]2)c1` [Entry 280, 5-[3-(1H-tetrazol-5-yl)-phenylethynyl]-1H-indole 5-(3-Ethynyl-phenyl)-1H-tetrazole], 1 to 10 µM. Turning to `O=C(O)c1cccc(C#Cc2ccccc2)c1-c1cccc(CO)c1` [Entry 128, 2-[3-(hydroxymethyl)phenyl]-3-(2-phenylethynyl)benzoic acid], the IC50 lay in the range of 10 to 100 µM. Turning to `O=C(O)c1cccc(C#Cc2cccc(NS(=O)(=O)c3ccc(F)c(Cl)c3)c2)c1-c1ccc2cc[nH]c2c1` [Entry 232, 3-((3-(3-chloro-4-fluorophenylsulfonamido)phenyl)ethynyl)-2-(1H-indol-6-yl)benzoic acid], the IC50 is below 1 µM. Compound `COc1cccc(C#Cc2cccc(C(=O)O)c2-n2c(C)ccc2C)c1` [Entry 200, 2-(2,5-dimethyl-pyrrol-1-yl)-3-(3-methoxy-phenylethynyl)-benzoic acid] displayed an IC50 of 1 to 10 µM. For `CC(C)(C)C#Cc1cccc(C(=O)O)c1-n1cccc1` [Entry 49, 3-(3,3-dimethylbut-1-yn-1-yl)-2-(1H-pyrrol-1-yl)benzoic acid] the value was 1 to 10 µM; for `O=C(O)c1cccc(C#Cc2ccncc2)c1-n1ccnc1` [Entry 292, 2-imidazol-1-yl-3-pyridin-4-ylethynyl-benzoic acid], 100 to 1000 µM; for `O=C(O)c1cccc(C#Cc2c[nH]c3ccccc23)c1-n1cccc1` [Entry 2, 3-(1H-indol-3-ylethynyl)-2-pyrrol-1-yl-benzoic acid], below 1 µM. `NC(=O)c1cccc(C#Cc2cccc(C(=O)O)c2N)c1` [Entry 278, 2-amino-3-[2-(3-carbamoylphenyl)ethynyl]benzoic acid; trifluoroacetate salt] had an IC50 of 10 to 100 µM. For `NCc1cccc(C#Cc2cccc(C(=O)O)c2-n2cccc2)c1` [Entry 162, 3-{2-[3-(Aminomethyl)phenyl]ethynyl}-2-(1H-pyrrol-1-yl)benzoic acid] the value was 1 to 10 µM. As to `O=C(O)c1cc2ccc(-c3c(C#Cc4ccccc4)cccc3C(=O)O)cc2[nH]1` [Entry 250, 6-(2-carboxy-6-(phenylethynyl)phenyl)-1H-indole-2-carboxylic acid], the IC50 is 1 to 10 µM.

The compound `COc1cc(C#Cc2cccc(C(=O)O)c2-c2ccc3cc[nH]c3c2)cc(C(N)=O)c1` [Entry 252, 3-((3-carbamoyl-5-methoxyphenyl)ethynyl)-2-(1H-indol-6-yl)benzoic acid] registered an IC50 of 1 to 10 µM.

The compound `O=C(O)c1cccc(C#Cc2ccncc2)c1` [Entry 93, 3-[2-(pyridin-4-yl)ethynyl]benzoic acid] registered an IC50 of 1 to 10 µM. `Cc1ccc(-c2c(C#Cc3ccccc3)cccc2C(=O)O)cc1` [Entry 125, 2-(4-methylphenyl)-3-(2-phenylethynyl)benzoic acid] registered an IC50 of 1 to 10 µM. As for `O=C(O)c1cccc(C#Cc2ccccc2)c1N1CCCC1c1ccccc1` (stereo not drawn) [Entry 102, 3-(2-phenylethynyl)-2-(2-phenylpyrrolidin-1-yl)benzoic acid], the figure is 1 to 10 µM; as for `Nc1ccc2c(c1)ncn2CC#Cc1cccc(C(=O)O)c1-c1ccccc1` [Entry 258, 3-[3-(5-amino-1H-1,3-benzodiazol-1-yl)prop-1-yn-1-yl]-2-phenylbenzoic acid trifluoroacetate salt], 1 to 10 µM. For the compound `Cn1ncc2ccc(-c3c(C#Cc4cscn4)cccc3C(=O)O)cc21` [Entry 170], the IC50 lay within 1 to 10 µM. As for `COc1cccc(-c2cn(-c3c(C#Cc4ccccc4)cccc3C(=O)O)nn2)c1` [Entry 110, 2-(4-(3-methoxyphenyl)-1H-1,2,3-triazol-1-yl)-3-(phenylethynyl)benzoic acid], the figure is 10 to 100 µM; as for `COc1ccccc1-c1c(C#Cc2ccccc2)cccc1C(=O)O` [Entry 121, 2-(2-methoxyphenyl)-3-(2-phenylethynyl)benzoic acid], 10 to 100 µM. For `O=C(O)c1cccc(C#Cc2ccccc2)c1-c1ccc2[nH]ccc2c1` [Entry 253, 2-(1H-indol-5-yl)-3-(phenylethynyl)benzoic acid] the value was 1 to 10 µM; for `O=C(O)c1cccc(C#CCNCCCn2ccnc2)c1-c1ccccc1` [Entry 158, 3-(3-{[3-(1H-imidazol-1-yl)propyl]amino}prop-1-yn-1-yl)-2-phenylbenzoic acid], 10 to 100 µM; for `O=C(O)c1cccc(C#Cc2cccc(OC(F)F)c2)c1-n1cccc1` [Entry 46, 3-{2-[3-(difluoromethoxy)phenyl]ethynyl}-2-(1H-pyrrol-1-yl)benzoic acid], 1 to 10 µM. For the compound `O=C(O)c1cccc(C#Cc2ccc(F)cc2)c1-c1ccc2cc[nH]c2c1` [Entry 228, 3-((4-Fluorophenyl)ethynyl)-2-(1H-indol-6-yl)benzoic acid], the IC50 was in the range of 1 to 10 µM. For `O=C(O)c1cccc(C#Cc2ccc3cc[nH]c3c2)c1-n1cccc1` [Entry 43, 3-[2-(1H-indol-6-yl)ethynyl]-2-(1H-pyrrol-1-yl)benzoic acid] the value was below 1 µM; for `O=C(O)c1cccc(C#Cc2ccncc2)c1-c1ccccc1` [Entry 177, 2-phenyl-3-[2-(pyridin-4-yl)ethynyl]benzoic acid], 100 to 1000 µM; for `CC(=O)NS(=O)(=O)c1cccc(C#Cc2ccccc2)c1-n1cccc1` [Entry 153, N-Acetyl-3-phenylethynyl-2-pyrrol-1-yl-benzenesulfonamide], 10 to 100 µM.

Take `Cc1nn(C)c(C)c1-c1c(C#Cc2ccccc2)cccc1C(=O)O` [Entry 190, 3-phenylethynyl-2-(1,3,5-trimethyl-1H-pyrazol-4-yl)-benzoic acid]: the half-inhibitory concentration (IC50) was in the range of 100 to 1000 µM. As for `CN(C)S(=O)(=O)NC(=O)c1cccc(C#Cc2ccccc2)c1-n1cccc1` [Entry 113, N-(Dimethylsulfamoyl)-3-(2-phenylethynyl)-2-(1H-pyrrol-1-yl)benzamide], the figure is 1 to 10 µM. The compound `CN(C)c1ccc(-c2c(C#Cc3ccccc3)cccc2C(=O)O)cn1` [Entry 127, 2-[6-(dimethylamino)pyridin-3-yl]-3-(2-phenylethynyl)benzoic acid] displayed an IC50 of 10 to 100 µM. As for `COc1cccc(C#Cc2cccc(C(=O)O)c2-n2cccc2)c1` [Entry 70, 3-[2-(3-methoxyphenyl)ethynyl]-2-(1H-pyrrol-1-yl)benzoic acid], the figure is 1 to 10 µM.

`Cc1ccc(C#Cc2cccc(C(=O)O)c2-n2c(C)ccc2C)cc1` [Entry 21, 2-(2,5-dimethyl-1H-pyrrol-1-yl)-3-[2-(4-methylphenyl)ethynyl]benzoic acid]: the IC50 was below 1 µM.

One may read the IC50 as the concentration needed to halve the response being measured. A higher IC50 goes with a need for much substance.
